Experimental data reported in patent US20230130766A1 (SALK INSTITUTE FOR BIOLOGICAL STUDIES, priority 2020, published 2023).

molecular target: T1, ULK1 (Homo sapiens, UniProt O75385); assay: ULK1 inhibition assay; assay type: biochemical; conditions: * = tested as a mixture of regioisomers
T1 sequence (O75385 1-1050): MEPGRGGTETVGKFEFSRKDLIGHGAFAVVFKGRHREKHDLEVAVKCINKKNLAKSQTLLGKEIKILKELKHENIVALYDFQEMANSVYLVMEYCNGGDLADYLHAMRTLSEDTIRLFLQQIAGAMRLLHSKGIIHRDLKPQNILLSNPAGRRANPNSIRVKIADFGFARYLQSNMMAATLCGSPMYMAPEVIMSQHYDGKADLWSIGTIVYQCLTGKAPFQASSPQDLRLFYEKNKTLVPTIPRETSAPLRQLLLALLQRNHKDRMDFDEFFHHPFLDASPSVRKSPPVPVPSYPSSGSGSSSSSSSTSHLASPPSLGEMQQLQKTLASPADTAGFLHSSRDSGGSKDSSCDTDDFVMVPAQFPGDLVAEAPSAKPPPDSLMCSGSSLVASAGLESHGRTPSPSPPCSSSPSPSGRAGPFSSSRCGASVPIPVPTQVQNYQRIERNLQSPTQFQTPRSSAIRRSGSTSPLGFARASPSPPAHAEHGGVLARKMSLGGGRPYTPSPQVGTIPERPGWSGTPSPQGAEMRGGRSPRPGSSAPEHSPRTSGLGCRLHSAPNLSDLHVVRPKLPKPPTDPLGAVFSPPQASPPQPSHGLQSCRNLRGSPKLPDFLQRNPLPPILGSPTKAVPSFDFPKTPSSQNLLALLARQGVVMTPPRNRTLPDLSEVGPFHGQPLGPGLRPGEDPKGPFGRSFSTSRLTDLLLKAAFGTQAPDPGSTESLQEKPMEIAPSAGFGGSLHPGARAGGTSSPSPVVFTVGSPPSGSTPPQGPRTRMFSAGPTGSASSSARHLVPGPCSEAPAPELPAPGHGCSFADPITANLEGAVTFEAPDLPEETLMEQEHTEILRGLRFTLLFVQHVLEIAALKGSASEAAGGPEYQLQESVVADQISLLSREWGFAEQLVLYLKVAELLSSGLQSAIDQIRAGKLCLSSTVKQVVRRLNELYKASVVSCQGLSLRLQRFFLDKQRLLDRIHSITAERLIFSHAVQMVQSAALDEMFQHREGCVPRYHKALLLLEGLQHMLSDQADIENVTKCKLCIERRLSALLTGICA

IC50 [nM] | SMILES
< 200 | O=C1CCc2cc(Nc3ncc(C(F)(F)F)c(NC4Cc5ccccc5C4)n3)ccc2N1 [Compound 130a]
> 2000 | O=C1CCc2cc(Nc3nc(NC4Cc5ccccc5C4)ncc3C(F)(F)F)ccc2N1 [Compound 130b]
< 200 | O=C1CCc2cc(Nc3ncc(C(F)(F)F)c(NC4CC4)n3)ccc2N1 [Compound 131a]
< 200 | O=C1CCc2cc(Nc3nc(NC4CC4)ncc3C(F)(F)F)ccc2N1 [Compound 131b]
< 200 | CC(=O)Nc1ccc(Nc2nc(Nc3ccc4c(c3)CCC(=O)N4)ncc2C(F)(F)F)cc1 [Compound 132]
< 200 | COc1cccc(Nc2nc(Nc3ccc4c(c3)OCCO4)ncc2C(F)(F)F)c1 [Compound 133]
< 200 | O=C1CCc2cc(Nc3ncc(Cl)c(Nc4ccc5c(c4)CCC(=O)N5)n3)ccc2N1 [Compound 134]
> 2000 | COc1cnc(Nc2ccc3c(c2)CCC(=O)N3)nc1Nc1ccc2c(c1)CCC(=O)N2 [Compound 135]
> 2000 | Fc1c(Nc2ncc(C(F)(F)F)c(Nc3ccc4c(c3)OCO4)n2)cccc1C(F)(F)F [Compound 141a]
< 200 | Fc1c(Nc2nc(Nc3ccc4c(c3)OCO4)ncc2C(F)(F)F)cccc1C(F)(F)F [Compound 141b]
< 200 | COc1cccc(Nc2nc(Nc3ccc4c(c3)CCC(=O)N4)ncc2Br)c1 [Compound 142]
< 200 | COc1cccc(Nc2nc(Nc3ccc4c(c3)CCC(=O)N4)ncc2Cl)c1 [Compound 143a]
< 200 | COc1cccc(Nc2ncc(Cl)c(Nc3cccc(OC)c3)n2)c1 [Compound 143b]
< 200 | O=C1CCc2cc(Nc3ncc(C(F)(F)F)c(NC4CCC4)n3)ccc2N1 [Compound 150a]
< 200 | O=C1CCc2cc(Nc3nc(NC4CCC4)ncc3C(F)(F)F)ccc2N1 [Compound 150b]
< 200 | COCCNc1nc(Nc2ccc3c(c2)CCC(=O)N3)ncc1C(F)(F)F [Compound 151a]
< 200 | COCCNc1ncc(C(F)(F)F)c(Nc2ccc3c(c2)CCC(=O)N3)n1 [Compound 151b]
< 200 | FC(F)(F)c1cnc(Nc2cnc3[nH]ccc3c2)nc1NC1CC1 [Compound 152a]
> 2000 | CS(=O)(=O)c1cccc(CNc2nc(Nc3ccc4[nH]ccc4c3)ncc2Br)c1 [Compound 153]
< 200 | Brc1cnc(Nc2ccc3[nH]ccc3c2)nc1Nc1ccccn1 [Compound 154]
< 200 | O=C1CCc2cc(Nc3ncc(Br)c(Nc4ccccn4)n3)ccc2N1 [Compound 155]
< 200 | COc1ccc(Nc2nc(Nc3ccc4c(c3)CCC(=O)N4)ncc2Br)cn1 [Compound 156]
< 200 | FC(F)(F)c1cnc(Nc2ccc3c(c2)OCCO3)nc1NC1CC1 [Compound 158a]
< 200 | FC(F)(F)c1cnc(NC2CC2)nc1Nc1ccc2c(c1)OCCO2 [Compound 158b]
< 200 | O=C1CCc2cc(Nc3ncc(Br)c(NC4CC4)n3)ccc2N1 [Compound 159]

IC50 [nM] | SMILES
< 200 | O=C1CCc2cc(Nc3ncc(C(F)(F)F)c(NC4CCCC4)n3)ccc2N1 [Compound 160a]
< 200 | FC(F)(F)c1cnc(Nc2cnc3[nH]ccc3c2)nc1NC1CCC1 [Compound 161a]
< 200 | FC(F)(F)c1cnc(NC2CCC2)nc1Nc1cnc2[nH]ccc2c1 [Compound 161b]
> 2000 | FC(F)(F)c1cnc(NC2Cc3ccccc3C2)nc1Nc1ccc2c(c1)OCO2 [Compound 163a]
> 2000 | FC(F)(F)c1cnc(Nc2ccc3c(c2)OCO3)nc1NC1Cc2ccccc2C1 [Compound 163b]
> 2000 | FC(F)(F)c1cnc(N2CCCC2)nc1Nc1ccc2c(c1)OCO2 [Compound 164a]
> 2000 | FC(F)(F)c1cnc(N2CCC2)nc1Nc1ccc2c(c1)OCO2 [Compound 166a]
< 200 | FC(F)(F)c1cnc(Nc2ccc3c(c2)OCO3)nc1N1CCC1 [Compound 166b]
< 200 | FC(F)(F)c1cnc(NCC2CC2)nc1Nc1ccc2c(c1)OCO2 [Compound 167a]
< 200 | FC(F)(F)c1cnc(Nc2ccc3c(c2)OCO3)nc1NCC1CC1 [Compound 167b]
< 200 | FC(F)(F)c1cnc(NC2CCC2)nc1Nc1ccc2c(c1)OCO2 [Compound 168a]
> 2000 | FC(F)(F)c1cnc(NC2CC2)nc1NC1CC1 [Compound 169]
> 2000 | CNC(=O)c1ccccc1Oc1nc(Nc2cc(OC)ccc2C)ncc1Br [Compound 170]
< 200 | COc1cc(Nc2ncc(Br)c(N(C)C(=O)c3ccccc3O)n2)cc(OC)c1OC [Compound 171b]
< 200 | CCCCOc1nc(Nc2cc(OC)c(OC)c(OC)c2)ncc1Br [Compound 173]
< 200 | Brc1cnc(Nc2cnc3[nH]ccc3c2)nc1NC1CC1 [Compound 174]
< 200 | O=C1CCc2cc(Nc3ncc(C(F)(F)F)c(OC4CCC4)n3)ccc2N1 [Compound 175]
< 200 | FC(F)(F)c1cnc(Nc2cnc3[nH]ccc3c2)nc1Nc1ccc2c(c1)OCO2 [Compound 177]
< 200 | O=C1CCc2cc(Nc3ncc(C(F)(F)F)c(Nc4ccc5c(c4)OC(F)(F)O5)n3)ccc2N1 [Compound 178a]
< 200 | O=C1CCc2cc(Nc3nc(Nc4ccc5c(c4)OC(F)(F)O5)ncc3C(F)(F)F)ccc2N1 [Compound 178b]
< 200 | O=C1CCc2cc(Nc3ncc(C(F)(F)F)c(OC4Cc5ccccc5C4)n3)ccc2N1 [Compound 180a]
> 2000 | O=C1CCc2cc(Nc3nc(OC4Cc5ccccc5C4)ncc3C(F)(F)F)ccc2N1 [Compound 180b]
< 200 | FC(F)(F)c1cnc(Nc2cnc3[nH]ccc3c2)nc1Nc1ccccc1 [Compound 181a]
< 200 | CNc1nc(Nc2cnc3[nH]ccc3c2)ncc1C(F)(F)F [Compound 182a]
< 200 | CC(Cl)CNc1nc(Nc2ccc3c(c2)CCC(=O)N3)ncc1C(F)(F)F (centres unmarked) [Compound 183b]

IC50 [nM] | SMILES
> 2000 | CC(CCl)Nc1nc(Nc2ccc3c(c2)CCC(=O)N3)ncc1C(F)(F)F (centres unmarked) [Compound 183c]
200 to 2000 | CN(c1ccccc1)c1nc(Nc2ccc3c(c2)CCC(=O)N3)ncc1C(F)(F)F [Compound 184a]
< 200 | CN(c1ccccc1)c1ncc(C(F)(F)F)c(Nc2ccc3c(c2)CCC(=O)N3)n1 [Compound 184b]
< 200 | O=C1CCc2cc(Nc3ncc(C(F)(F)F)c(Nc4ccc5[nH]ncc5c4)n3)ccc2N1 [Compound 185]
< 200 | COc1cc(Nc2ncc(Br)c(NC3CC3)n2)cc(OC)c1OC [Compound 186]
< 200 | COc1cc(Nc2ncc(C(F)(F)F)c(NC3CC3)n2)cc(OC)c1OC [Compound 187]
< 200 | FC(F)(F)c1cnc(Nc2ccc3nn[nH]c3c2)nc1NC1CC1 [Compound 188]
> 2000 | Oc1ncc(C(F)(F)F)c(NC2CC2)n1 [Compound 189]
< 200 | FC(F)(F)c1cnc(Nc2ccc3c(c2)OCCCO3)nc1NC1CC1 [Compound 190]
< 200 | O=c1[nH]c2ncc(Nc3nc(Nc4ccc5c(c4)OCCO5)ncc3Br)cc2o1 [Compound 192]
> 2000 | O=C1CCc2cc(Nc3ncc(C(F)(F)F)c(NC4COC4)n3)ccc2N1 [Compound 193]
< 200 | FC(F)(F)c1cnc(Nc2cnc3[nH]ccc3c2)nc1NC1COC1 [Compound 194]
> 2000 | FC(F)(F)c1cnc(Nc2cccnc2)nc1NC1CC1 [Compound 196]
< 200 | O=C1CCc2cc(Nc3ncc(C(F)(F)F)c(NCCO)n3)ccc2N1 [Compound 197]
200 to 2000 | O=C1CCc2cc(Nc3ncc(C(F)(F)F)c(NC4CNC4)n3)ccc2N1 [Compound 198a]
> 2000 | O=C1CCc2cc(Nc3ncc(C(F)(F)F)c(NC4CN(c5nc(Nc6ccc7c(c6)CCC(=O)N7)ncc5C(F)(F)F)C4)n3)ccc2N1 [Compound 198b]
> 2000 | O=C1CCc2cc(Nc3nccc(NC4CC4)n3)ccc2N1 [Compound 200]
< 200 | CNC(=O)c1ccccc1Nc1nc(Nc2cnc3[nH]ccc3c2)ncc1C(F)(F)F [Compound 201]
< 200 | CN(c1nc(Nc2ccc3c(c2)CCC(=O)N3)ncc1C(F)(F)F)C1CC1 [Compound 202]
< 200 | FC(F)(F)c1cnc(Nc2cncnc2)nc1NC1CC1 [Compound 203]
> 2000 | c1cc(NC2CC2)nc(Nc2cnc3[nH]ccc3c2)n1 [Compound 204]
< 200 | FC(F)(F)c1cnc(Nc2ccc3[nH]ccc3c2)nc1NC1CC1 [Compound 206]
< 200 | FC(F)(F)c1cnc(Nc2ccc3ncoc3c2)nc1NC1CC1 [Compound 208a]

SMILES | IC50 [nM]
CC1CN1c1nc(Nc2ccc3c(c2)CCC(=O)N3)ncc1C(F)(F)F (centres unmarked) [Compound 183a] | > 2000
